From US20030216293A1, “Use of composition comprising at least one substance within the group GnRH-analogues for treatment of obsessive -compulsive disorder (OCD)” (priority 1998, published 2003)

Tests used:
[1] = tested on: patient with a severe form of OCD; assay: Case study: treatment of a patient with a severe form of OCD; assay type: in vivo, human
Procedure: The GnRH-analogue triptorelin is available in a pharmaceutical preparation (Decapeptyl® Depot). In the use of this preparation, an injection is administered containing triptorelin embonate in a dose corresponding to 3.75 mg triptorelin. Injections with this dose are given intramuscularly. They should be repeated every fourth week from the first injection.
A detailed case study of the treatment of a patient with a severe form of OCD is disclosed in the following, as supporting evidence of the effect of the method.
A then person was referred to a psychiatric specialist clinic from another qualified psychiatrist for evaluation and treatment of a severe condition of OCD.
The situation when the patient came to the clinic was that they had sickness pension since more than ten years. They lived alone in a small apartment which they hardly ever left. Obsessions and compulsive rituals occupied most of their time. They repeated against their will meaningless strings of words silently during several hours every day. They felt they had to read the newspaper according to certain ritual patterns; if they did anything wrong, they had to start again from the beginning. Sometimes, it took them the whole day to read the newspaper. […] Among other things, they placed their books so that the covers were strictly oriented along north-south lines. Their contacts with other persons were highly restraint and mainly limited to some relatives.
The clinical diagnosis was that they suffered from a very serious form of OCD. They were also found to be intelligent without any signs of any other mental illness or personality disorder. Thus, it was a clearly defined case of OCD.
During long periods of time the patient had been treated with the drugs which presently are considered to have the best effect against OCD. In the treatment of the patient they had also been given supportive psychotherapy.
In order to overcome this, treatment with the long-acting GnRH-analogue triptorelin (Decapeptyl® Depot) was given every fourth week as deep intramuscular depot injections with a dose corresponding to 3.75 mg triptorelin in each injection.

[2] = tested on: symptoms of androgenic hyperactivity; assay: Case study: treatment against the patient's symptoms of androgenic hyperactivity; assay type: in vivo, human; conditions: one patient (male pattern baldness, sebaceous skin, acne, sexual drive)
Procedure: An endocrinological investigation was performed, based upon their symptoms of androgenic hyperactivity.

[3] = one patient, 3.75 mg i.m. depot every fourth week, after two plus another two months

| Compound | effect on OCD ([1]; one patient, given as anti-androgenic treatment) | improvement of OCD on previous treatment ([1]; same patient, treated before triptorelin) | effect on symptoms of androgenic hyperactivity [2] | OCD-symptoms, initial phase of treatment ([1]; one patient, 3.75 mg deep intramuscular depot injection every fourth week, initially) | patient's condition after two months treatment ([1]; one patient, 3.75 mg i.m. depot every fourth week, after two months) | obsessive thoughts after another two months [1, 3] | patient's condition after another two months [1, 3] | clinical outcome of very severe OCD ([1]; one patient, after three months of treatment) |
| --- | --- | --- | --- | --- | --- | --- | --- | --- |
| CC(=O)O[C@]1(C(C)=O)CC[C@H]2[C@@H]3C=C(Cl)C4=CC(=O)[C@@H]5C[C@@H]5[C@]4(C)[C@H]3CC[C@@]21C [cyproterone acetate] | without any obvious effect | without any major improvement | without any significant effects | – | – | – | – | – |
| CC(C)C[C@H](NC(=O)[C@@H](Cc1c[nH]c2ccccc12)NC(=O)[C@H](Cc1ccc(O)cc1)NC(=O)[C@H](CO)NC(=O)[C@H](Cc1c[nH]c2ccccc12)NC(=O)[C@H](Cc1c[nH]cn1)NC(=O)[C@@H]1CCC(=O)N1)C(=O)N[C@@H](CCCNC(=N)N)C(=O)N1CCC[C@H]1C(=O)NCC(N)=O [triptorelin] | – | – | – | accentuation of the patients OCD-symptoms | began to feel better | all obsessive thoughts had disappeared | dramatically better | substantially recovered |
